Results: patent US20230391748A1, “BICYCLIC INHIBITORS OF IRAK” (priority 2022, published 2023)
pIC50: −log10 of the molar value.

What was measured:
IRAK4 = IRAK4 (Homo sapiens (Human), UniProt Q9NWZ3); assay: IRAK4 ADP-Glo Assay; assay type: biochemical; details: MBP substrate
Protocol: The ADP-Glo™ reagents were thawed at ambient temperature. The Kinase Detection Reagent was prepared by mixing kinase detection buffer with the lyophilized kinase detection substrate, and set aside.
A stock volume of 5× Reaction Kinase Buffer was made with a final concentration of 100 mM MgCl2, 200 mM Tris-HCl, and 0.5 mg/ml of BSA, in distilled H2O with a final pH7.4. A 2× working stock volume of Reaction Kinase Buffer was made containing a final concentration of 100 μM DTT.
The components of IRAK4 Enzyme were thawed on ice. Diluted IRAK4 in 1× Kinase Reaction Buffer (diluted from 2× buffer) was prepared at 5.0 ng/μl.
Then diluted 1:5 in 2× Reaction Buffer in a 96 well plate. 1.0 μl was transferred to a 384 well plate in duplicate. […] 1 μl of 1 mg/ml stock solution of MBP substrate was added NOTE: MBP can be combined with ATP mix with equal volume and then added at 2 μl/well. Final reaction volume was 5 μl.
The plate was centrifuged and the reaction mixture was incubated at room temperature for 60 minutes or at 30° C. for 30 minutes.
The reaction was terminated and the remaining ATP was depleted by adding 5 μl of ADP-Glo™ Reagent. The 384-well plate was centrifuged and then the reaction mixture was incubated for another 40 minutes at ambient temperature.
10 μl of the Kinase Detection Reagent was added. The plate was centrifuged and then the reaction mixture was incubated for another 30 minutes at ambient temperature.
The 384-well reaction plate was read using the WALLAC plate reader (Luminescence 0.1s).

IL23p19 in THP-1 Cells = assay: LPS Induced IL23p19 in THP-1 Cells (with IFNγ Primed) Assay; assay type: cell-based; details: Homo sapiens, THP-1, 18 h, read-out: IL23 (THP, LPS) (IC50, μM)
Protocol: LPS Induced IL23p19 in THP-1 Cells (with IFNγ Primed) Assay
On day 1, 50K/well THP-1 cells were seeded and primed with IFNγ (50 ng/mL) in 384-well plates for about 18 hours in RPMI media with 10% FBS. […] 50 μL/well 2× compound was added to 50 μL/well THP-1 cells (with IFNγ primed) in duplicate in 384 well tissue culture plates. […] Day 3, after stimulation for 18 hours at 37° C., 5% CO2, the assay plate was centrifuged and 70 μL/well supernatant was harvested. IL-23p19 protein in 70 µL/well of supernatant was measured by sandwich ELISA, and 25 μl/well Cell Titer Glo reagent was added to the remaining cells to measure compound toxicity.
Maxisorp immuno ELISA plates were pre-coated with 25 μL/well of anti-IL-23p19 capture antibody (2.5 ug/mL) in PBS overnight at room temperature. […] 25 μL/well of biotin labeled anti-IL-12(p40/p70) detection antibody (100 ng/mL) in PBS with 1% BSA was added and the plates were incubated at room temperature for 2 hours with shaking. […] The plates were read with a luminometer, and the chemiluminescence values were entered into Athena (Rigel) for curve fitting, EC50 calculation, and database storage.

TNF-α in human PBMCs = assay: R848-induced TNF-α in human PBMCs Assay; assay type: cell-based; details: Homo sapiens, PBMC, 4 h, read-out: TNFα (PBMC, R848) (IC50, μM)
Protocol: R848-induced TNF-α in human PBMCs Assay
100 μL/well PBMCs (200K/well) were seeded in 96-well flat-bottom tissue culture plates. […] 100 μL/well 2× compound was added to the PBMC in the tissue culture plates. […] The cells were stimulated with R848 for an additional 4 hours at 37° C., 5% CO2. The supernatant (100 μl/well) was harvested to measure TNF-α by ELISA. […] The chemiluminescence values were entered into Athena (Rigel) for curve fitting, EC50 calculation, and database storage.
(§1) TNF-α ELISA was performed according to the vendor protocol, using 96 Well Flat-Bottom, MaxiSorp Black Immuno plates and 100 μL/well of supernatant. The plates were developed using 100 μL/well of Super Signal ELISA Pico Chemiluminescent Substrate. The plates were read with a luminometer, and the chemiluminescence values were entered into Athena (Rigel) for curve fitting, EC50 calculation, and database storage.

[1] = test system: TNF-α in Human Primary Monocyte-Derived Dendritic Cells; assay: Gardiquimod-Induced TNF-α in Human Primary Monocyte-Derived Dendritic Cells; assay type: cell-based; details: Dendritic cell, IFNγ-primed monocyte-derived dendritic cells, 4 μg/ml Gardiquimod, 6 hours, TNF-α ELISA, read-out: TNFα (DC, GARD) (IC50)
Protocol: Gardiquimod-Induced TNF-α in Human Primary Monocyte-Derived Dendritic Cells
After 2 hours, the media including floating cells was carefully removed and 12 ml of fresh RPMI media (10% FBS) containing GM-CSF (100 ng/ml) and IL-4 (20 ng/ml) were added to the adherent monocytes. The monocytes were allowed to differentiate for 7 days at 37° C., 5% CO2 for 7 days, supplementing with fresh GM-CSF and IL-4 after 3 days. The differentiated dendritic cells (DC) were harvested by centrifugation (1200 rpm/5 min). The DCs were primed at 37° C., 5% CO2 for 24 hours with 50 ng/ml IFN-γ (1000 U/ml) at 50K/well in 100 μl/well of fresh RPMI media (10% FBS) in a white clear bottom 96 well plate.
The primed DCs were pre-incubated with test compound for 1 hour at 37° C., 5% CO2 by adding 100 μl of RPMI media containing 2× concentrated test compound per well (0.5% final DMSO concentration).
DCs were stimulated with Gardiquimod (10 μl per well of 20× concentrated Gardiquimod solution in RPMI media to give a final concentration of 4 μg/ml) at 37° C., 5% CO2 for an additional 6 hours. The supernatant (100 μl/well) was harvested to measure TNF-α by ELISA. […] The chemiluminescence values were entered into Athena (Rigel) for curve fitting, EC50 calculation, and database storage.
as §1

IRAK4, sequence (Q9NWZ3 whole entry): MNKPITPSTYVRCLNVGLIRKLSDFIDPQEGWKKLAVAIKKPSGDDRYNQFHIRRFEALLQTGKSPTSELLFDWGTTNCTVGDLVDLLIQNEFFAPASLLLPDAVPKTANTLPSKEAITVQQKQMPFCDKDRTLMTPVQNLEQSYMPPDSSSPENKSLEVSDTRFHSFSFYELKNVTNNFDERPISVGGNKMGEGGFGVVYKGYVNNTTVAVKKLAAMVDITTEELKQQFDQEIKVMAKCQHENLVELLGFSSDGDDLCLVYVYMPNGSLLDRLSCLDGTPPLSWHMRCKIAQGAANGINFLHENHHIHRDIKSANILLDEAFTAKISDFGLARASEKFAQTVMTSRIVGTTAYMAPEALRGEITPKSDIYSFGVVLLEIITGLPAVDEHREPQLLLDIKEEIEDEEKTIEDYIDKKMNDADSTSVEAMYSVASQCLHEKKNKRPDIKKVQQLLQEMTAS

| Compound | pIC50 (IRAK4) | IC50 (IL23p19 in THP-1 Cells) [µM] | IC50 (TNF-α in human PBMCs) [µM] | pIC50 [1] |
| --- | --- | --- | --- | --- |
| CC(C)Oc1cc2c(OC[C@@H]3CCC(=O)N3)ncc(-c3cnn(CC4CCOCC4)c3)c2cc1C(N)=O [Compound I-36, (S)-7-isopropoxy-1-((5-oxopyrrolidin-2-yl)methoxy)-4-(1-((tetrahydro-2H-pyran-4-yl)methyl)-1H-pyrazol-4-yl)isoquinoline-6-carboxamide] | 7.87 | 0.976 | 0.377 | 6.40 |
| CC(C)Oc1cc2c(OC[C@@H]3CCC(=O)N3)ncc(C#CCN3CCOCC3)c2cc1C(N)=O [Compound I-7, (S)-7-isopropoxy-4-(3-morpholinoprop-1-yn-1-yl)-1-((5-oxopyrrolidin-2-yl)methoxy)isoquinoline-6-carboxamide] | 8.09 | 0.527 | 0.402 | 6.42 |
| CC(C)Oc1cc2c(OC[C@@H]3CCC(=O)N3)ncc(-c3cnn(C4CCNCC4)c3)c2cc1C(N)=O [Compound I-45, (S)-7-isopropoxy-1-((5-oxopyrrolidin-2-yl)methoxy)-4-(1-(piperidin-4-yl)-1H-pyrazol-4-yl)isoquinoline-6-carboxamide] | 7.73 | 10.9 | 10 | 5.87 |
| CC(C)Oc1cc2c(OC[C@@H]3CC(F)(F)C(=O)N3)ncc(-c3cnn(C4CCC4)c3)c2cc1C(N)=O [Compound I-68, (S)-4-(1-cyclobutyl-1H-pyrazol-4-yl)-1-((4,4-difluoro-5-oxopyrrolidin-2-yl)methoxy)-7-isopropoxyisoquinoline-6-carboxamide] | 8.02 | 0.286 | 0.406 | 6.26 |
| CC(C)Oc1cc2c(OC[C@@H]3CC(F)(F)C(=O)N3)ncc(-c3cnn(CCC4CCOCC4)c3)c2cc1C(N)=O [Compound I-72, (S)-1-((4,4-difluoro-5-oxopyrrolidin-2-yl)methoxy)-7-isopropoxy-4-(1-(2-(tetrahydro-2H-pyran-4-yl)ethyl)-1H-pyrazol-4-yl)isoquinoline-6-carboxamide] | 8.15 | 0.872 | 0.183 | 6.56 |
| CC(C)Oc1cc2c(OC[C@@H]3CCC(=O)N3)ncc(-c3cnn(C4CCN(C)CC4)c3)c2cc1C(N)=O [Compound I-46, (S)-7-isopropoxy-4-(1-(1-methylpiperidin-4-yl)-1H-pyrazol-4-yl)-1-((5-oxopyrrolidin-2-yl)methoxy)isoquinoline-6-carboxamide] | 7.81 | 5.42 | 1.25 | 6.33 |
| CC(C)Oc1cc2c(OC[C@@H]3CCC(=O)N3)ncc(C#CC3CCN(C)CC3)c2cc1C(N)=O [Compound I-18, (S)-7-isopropoxy-4-((1-methylpiperidin-4-yl)ethynyl)-1-((5-oxopyrrolidin-2-yl)methoxy)isoquinoline-6-carboxamide] | 8.64 | 0.606 | 0.306 | 6.69 |
| CC(C)Oc1cc2c(O[C@@H]3CCCN(C(=O)CC#N)C3)ncc(C#CC3(O)CCOCC3)c2cc1C(N)=O [Compound I-91, (R)-1-((1-(2-cyanoacetyl)piperidin-3-yl)oxy)-4-((4-hydroxytetrahydro-2H-pyran-4-yl)ethynyl)-7-isopropoxyisoquinoline-6-carboxamide] | 7.68 | 10.2 | 3.76 | 4.81 |
| CC(C)Oc1cc2c(OC[C@@H]3CCC(=O)N3)ncc(-c3cnn([C@H]4C[C@@H](N(C)C)C4)c3)c2cc1C(N)=O [Compound I-43, 4-(1-(cis-3-(dimethylamino)cyclobutyl)-1H-pyrazol-4-yl)-7-isopropoxy-1-(((S)-5-oxopyrrolidin-2-yl)methoxy)isoquinoline-6-carboxamide] | 8.30 | 3.1 | 0.701 | 6.45 |
| CC(C)Oc1cc2c(OC[C@@H]3CC(F)(F)C(=O)N3)ncc(Br)c2cc1C(N)=O [Compound I-2, (S)-4-bromo-1-((4,4-difluoro-5-oxopyrrolidin-2-yl)methoxy)-7-isopropoxyisoquinoline-6-carboxamide] | 8.36 | 5.53 | 1.15 | 5.27 |
| CCO[C@H]1CC[C@H](C#Cc2cnc(OC[C@@H]3CC(F)(F)C(=O)N3)c3cc(OC(C)C)c(C(N)=O)cc23)CC1 [Compound I-58, 1-(((S)-4,4-difluoro-5-oxopyrrolidin-2-yl)methoxy)-4-(((1r,4S)-4-ethoxycyclohexyl)ethynyl)-7-isopropoxyisoquinoline-6-carboxamide] | 6.14 | 2960 | 1.56 | 7.65 |
| CC(C)Oc1cc2c(OC[C@@H]3CC(F)(F)C(=O)N3)ncc(C#C[C@H]3CC[C@](C)(O)CC3)c2cc1C(N)=O [Compound I-60, 1-(((S)-4,4-difluoro-5-oxopyrrolidin-2-yl)methoxy)-4-(((1r,4S)-4-hydroxy-4-methylcyclohexyl)ethynyl)-7-isopropoxyisoquinoline-6-carboxamide] | 8.03 | 0.0246 | 0.0778 | 7.67 |
| CC(C)Oc1cc2c(OC[C@@H]3CCC(=O)N3)ncc(C#C[C@H]3CC[C@@](C)(O)CC3)c2cc1C(N)=O [Compound I-23, 4-(((1s,4R)-4-hydroxy-4-methylcyclohexyl)ethynyl)-7-isopropoxy-1-(((S)-5-oxopyrrolidin-2-yl)methoxy)isoquinoline-6-carboxamide] | 7.94 | 0.712 | 2.12 | 6.25 |
| CC(C)Oc1cc2c(OC[C@@H]3CC(F)(F)C(=O)N3)ncc(C#CC3CCN(C)CC3)c2cc1C(N)=O [Compound I-56, (S)-1-((4,4-difluoro-5-oxopyrrolidin-2-yl)methoxy)-7-isopropoxy-4-((1-methylpiperidin-4-yl)ethynyl)isoquinoline-6-carboxamide] | 8.48 | 0.422 | 0.136 | 7.60 |
| CCO[C@H]1C[C@@H](n2cc(-c3cnc(OC[C@@H]4CCC(=O)N4)c4cc(OC(C)C)c(C(N)=O)cc34)cn2)C1 [Compound I-42, 4-(1-(cis-3-ethoxycyclobutyl)-1H-pyrazol-4-yl)-7-isopropoxy-1-(((S)-5-oxopyrrolidin-2-yl)methoxy)isoquinoline-6-carboxamide] | 8.19 | 0.72 | 0.241 | 6.87 |
